Results from patent US10450292B2, “Inhibitors of bacterial RNA polymerase: arylpropanoyl, arylpropenoyl, and arylcyclopropanecarboxyl phloroglucinols” (Rutgers, The State University of New Jersey, priority 2015, dated 2019).
Values after ≈ are worked out from the molar mass of the structure shown. Read-outs that look alike come from different tables or passages of the source.

Experiments:
[1] = tested on: Staphylococcus aureus ATCC 12600; experiment: Inhibition of bacterial growth in culture, spiral gradient endpoint assay (MIC); conditions: Staphylococcus aureus, ATCC12600, 16 h
[2] = tested on: Escherichia coli D21f2tolC; experiment: microbe, parasite or virus in culture; conditions: 16 h
[3] = tested on: Enterococcus faecalis ATCC 19433; experiment: Inhibition of bacterial growth in culture, spiral gradient endpoint assay (MIC); format: cell-based; conditions: Enterococcus faecalis, ATCC 19433 /, 16 h
Description: J. Microbiol. Meths. […] Int. J. Exp. Clin. Chemother. […] Adv.

[4] = read-out: MIC S. aureus 12600, Mueller-Hinton II agar, 16 h at 37° C.
[5] = read-out: MIC E. coli D21f2tolC, Mueller-Hinton II agar, 16 h at 37° C.
[6] = read-out: MIC E. faecalis, Mueller-Hinton II agar, 16 h at 37° C.

SMILES	MIC [1, 4] [µg/mL]	MIC [2, 5] [µg/mL]	MIC [3, 6] [µg/mL]	MIC ([1]; read-out: MIC S. aureus 12600) [µg/mL]	MIC ([2]; read-out: MIC E. coli D21f2tolC) [µg/mL]	MIC ([3]; read-out: MIC E. faecalis) [µg/mL]
O=C(C=Cc1ccc(Oc2ccc(Cl)cc2)cc1)c1c(O)cc(O)cc1O (mixture of isomers) [Example 5, (E)-3-(4-(4-chlorophenoxy)phenyl)-1-(2,4,6-trihydroxyphenyl)prop-2-en-1-one]	2.6	1.6	6			
CC(Cc1ccc(Cl)cc1)C(=O)c1c(O)cc(O)cc1O (racemic) [Example 30, 3-(4-chlorophenyl)-2-methyl-1-(2,4,6-trihydroxyphenyl)propan-1-one]	14 (≈ 45.6 µM)	6.5 (≈ 21.2 µM)	17 (≈ 55.4 µM)			
Cc1ccc(CCC(=O)c2c(O)cc(O)cc2O)s1 [Example 1, 3-(5-methylthiophen-2-yl)-1-(2,4,6-trihydroxyphenyl)propan-1-one]	32 (≈ 115 µM)	24 (≈ 86.2 µM)	> 40			
O=C(c1c(O)cc(O)cc1O)C1CC1c1ccc(Cl)cc1 (centres unmarked) [Example 2, (2-(4-chlorophenyl)cyclopropyl)(2,4,6-trihydroxyphenyl)methanone]	12 (≈ 39.4 µM)	9.3 (≈ 30.5 µM)	12 (≈ 39.4 µM)			
O=C(CCc1ccc(Oc2cccc(Cl)c2)cc1)c1c(O)cc(O)cc1O [Example 3, 3-(4-(3-chlorophenoxy)phenyl)-1-(2,4,6-trihydroxyphenyl)propan-1-one]	1.9 (≈ 4.94 µM)	1.9 (≈ 4.94 µM)	3.7 (≈ 9.62 µM)			
O=C(CCc1ccc(Oc2ccc(Cl)cc2)cc1)c1c(O)cc(O)cc1O [Example 4, 3-(4-(4-chlorophenoxy)phenyl)-1-(2,4,6-trihydroxyphenyl)propan-1-one]				2.4 (≈ 6.24 µM)	1.5 (≈ 3.9 µM)	3.2 (≈ 8.32 µM)
O=C(/C=C/c1ccc(Oc2ccccn2)cc1)c1c(O)cc(O)cc1O [Example 6, (E)-3-(4-(pyridin-2-yloxy)phenyl)-1-(2,4,6-trihydroxyphenyl)prop-2-en-1-one]	> 40	> 40	> 40			
O=C(/C=C/c1ccc(OCc2ccccc2)cc1)c1c(O)cc(O)cc1O [Example 7]	> 40	16 (≈ 44.2 µM)	> 40			
O=C(/C=C/c1ccc(Oc2ccccc2)cc1)c1c(O)cc(O)cc1O [Example 8, (E)-3-(4-phenoxyphenyl)-1-(2,4,6-trihydroxyphenyl)prop-2-en-1-one]	6.5 (≈ 18.7 µM)	3.8 (≈ 10.9 µM)	31 (≈ 89 µM)			
O=C(/C=C/c1ccc(C(F)(F)F)cc1C(F)(F)F)c1c(O)cc(O)cc1O [Example 9, (E)-3-(2,4-bis(trifluoromethyl)phenyl)-1-(2,4,6-trihydroxyphenyl)prop-2-en-1-one]	13 (≈ 33.1 µM)	8 (≈ 20.4 µM)	16 (≈ 40.8 µM)			
O=C(CCc1ccc(Oc2ccc(F)cc2)cc1)c1c(O)cc(O)cc1O [Example 10, 3-(4-(4-fluorophenoxy)phenyl)-1-(2,4,6-trihydroxyphenyl)propan-1-one]	3.1 (≈ 8.42 µM)	1.5 (≈ 4.07 µM)	5.1 (≈ 13.8 µM)			
O=C(/C=C/c1ccc(Oc2ccc(F)cc2)cc1)c1c(O)cc(O)cc1O [Example 11, (E)-3-(4-(4-fluorophenoxy)phenyl)-1-(2,4,6-trihydroxyphenyl)prop-2-en-1-one]	17 (≈ 46.4 µM)	5.9 (≈ 16.1 µM)	> 40			
O=C(c1c(O)cc(O)cc1O)C1CC1c1ccc(Oc2ccc(F)cc2)cc1 (centres unmarked) [Example 12, (2-(4-(4-fluorophenoxy)phenyl)cyclopropyl)(2,4,6-trihydroxyphenyl) methanone]	3.1 (≈ 8.15 µM)	1.5 (≈ 3.94 µM)	4 (≈ 10.5 µM)			
O=C(c1c(O)cc(O)cc1O)C1CC1c1ccc(Oc2ccc(Cl)cc2)cc1 (centres unmarked) [Example 13, (2-(4-(4-chlorophenoxy)phenyl)cyclopropyl)(2,4,6-trihydroxyphenyl)methanone]	4.3 (≈ 10.8 µM)	2.1 (≈ 5.29 µM)	4.8 (≈ 12.1 µM)			
O=C(/C=C/c1ccc(C(F)(F)F)cc1)c1c(O)cc(O)cc1O [Example 14, (E)-3-(4-(trifluoromethyl)phenyl)-1-(2,4,6-trihydroxyphenyl)prop-2-en-1-one]	32 (≈ 98.7 µM)	20 (≈ 61.7 µM)	32 (≈ 98.7 µM)			
O=C(/C=C/c1ccc(Oc2ccccc2)cc1C(F)(F)F)c1c(O)cc(O)cc1O [Example 15, (E)-3-(4-phenoxy-2-(trifluoromethyl)phenyl)-1-(2,4,6-trihydroxyphenyl)prop-2-en-1-one]	3.2 (≈ 7.69 µM)	1.8 (≈ 4.32 µM)	3.6 (≈ 8.65 µM)			
O=C(CCc1ccc(Oc2ccccc2)cc1C(F)(F)F)c1c(O)cc(O)cc1O [Example 16, 3-(4-phenoxy-2-(trifluoromethyl)phenyl)-1-(2,4,6-trihydroxyphenyl)propan-1-one]	1.1 (≈ 2.63 µM)	1.3 (≈ 3.11 µM)	1.8 (≈ 4.3 µM)			

SMILES	MIC [1, 4] [µg/mL]	MIC [2, 5] [µg/mL]	MIC [3, 6] [µg/mL]	MIC ([1]; read-out: MIC S. aureus 12600) [µg/mL]	MIC ([2]; read-out: MIC E. coli D21f2tolC) [µg/mL]	MIC ([3]; read-out: MIC E. faecalis) [µg/mL]
O=C(/C=C/c1ccc(Oc2ccc(Cl)cc2)cc1C(F)(F)F)c1c(O)cc(O)cc1O [Example 17, (E)-3-(4-(4-chlorophenoxy)-2-(trifluoromethyl)phenyl)-1-(2,4,6-trihydroxyphenyl)prop-2-en-1-one]	1.8 (≈ 3.99 µM)	2.5 (≈ 5.55 µM)	1.9 (≈ 4.21 µM)			
Cc1cc(Oc2ccc(Cl)cc2)ccc1/C=C/C(=O)c1c(O)cc(O)cc1O [Example 18, (E)-3-(4-(4-chlorophenoxy)-2-methylphenyl)-1-(2,4,6-trihydroxyphenyl)prop-2-en-1-one]	1.3 (≈ 3.28 µM)	1.1 (≈ 2.77 µM)	2.4 (≈ 6.05 µM)			
Cc1ccc(C2CC2C(=O)c2c(O)cc(O)cc2O)cc1 (centres unmarked) [Example 19, (2-(p-tolyl)cyclopropyl)(2,4,6-trihydroxyphenyl)methanone]	20 (≈ 70.3 µM)	13 (≈ 45.7 µM)	> 40			
Cc1ccc(C2CC2C(=O)c2c(O)cc(O)cc2O)c(C)c1 (centres unmarked) [Example 20, (2-(2,4-dimethylphenyl)cyclopropyl)(2,4,6-trihydroxyphenyl)methanone]	2.1 (≈ 7.04 µM)	1.7 (≈ 5.7 µM)	2.4 (≈ 8.04 µM)			
CCOc1ccc(C2CC2C(=O)c2c(O)cc(O)cc2O)cc1 (centres unmarked) [Example 21, (2-(4-ethoxyphenyl)cyclopropyl)(2,4,6-trihydroxyphenyl)methanone]	16 (≈ 50.9 µM)	20 (≈ 63.6 µM)	> 40			
O=C(c1c(O)cc(O)cc1O)C1CC1c1ccc(Oc2ccccc2)cc1 (centres unmarked) [Example 22, (2-(4-phenoxyphenyl)cyclopropyl)(2,4,6-trihydroxyphenyl) methanone]	1 (≈ 2.76 µM)	0.49 (≈ 1.35 µM)	1.3 (≈ 3.59 µM)			
O=C(CCc1ccc(Oc2ccc(Cl)cc2)cc1C(F)(F)F)c1c(O)cc(O)cc1O [Example 23, 3-(4-(4-chlorophenoxy)-2-(trifluoromethyl)phenyl)-1-(2,4,6-trihydroxyphenyl)propan-1-one]	1.1 (≈ 2.43 µM)	1.7 (≈ 3.75 µM)	1.7 (≈ 3.75 µM)			
Cc1cc(Oc2ccc(Cl)cc2)ccc1CCC(=O)c1c(O)cc(O)cc1O [Example 24, 3-(4-(4-chlorophenoxy)-2-methylphenyl)-1-(2,4,6-trihydroxyphenyl)propan-1-one]	1.8 (≈ 4.51 µM)	1.1 (≈ 2.76 µM)	3 (≈ 7.52 µM)			
O=C(c1c(O)cc(O)cc1O)C1CC1c1ccc(Oc2ccc(Cl)cc2)cc1C(F)(F)F (centres unmarked) [Example 25, (2-(4-(4-chlorophenoxy)-2-(trifluoromethyl)phenyl)cyclopropyl)(2,4,6-trihydroxyphenyl)methanone]	1.7 (≈ 3.66 µM)	1.5 (≈ 3.23 µM)	1.7 (≈ 3.66 µM)			
Cc1cc(Oc2ccc(Cl)cc2)ccc1C1CC1C(=O)c1c(O)cc(O)cc1O (centres unmarked) [Example 26, (2-(4-(4-chlorophenoxy)-2-methylphenyl)cyclopropyl)(2,4,6-trihydroxyphenyl)methanone]	1.4 (≈ 3.41 µM)	1.4 (≈ 3.41 µM)	2.1 (≈ 5.11 µM)			
Cc1cc(Oc2ccc(F)cc2)ccc1/C=C/C(=O)c1c(O)cc(O)cc1O [Example 27, (E)-3-(4-(4-fluorophenoxy)-2-methylphenyl)-1-(2,4,6-trihydroxyphenyl)prop-2-en-1-one]	5.1 (≈ 13.4 µM)	2.4 (≈ 6.31 µM)	17 (≈ 44.7 µM)			
O=C(/C=C/c1ccc(Oc2ccc(C(F)(F)F)cc2)cc1)c1c(O)cc(O)cc1O [Example 28, (E)-3-(4-(4-(trifluoromethyl)phenoxy)phenyl)-1-(2,4,6-trihydroxyphenyl)prop-2-en-1-one]	3.1 (≈ 7.45 µM)	2.4 (≈ 5.76 µM)	6.5 (≈ 15.6 µM)			
O=C(c1c(O)cc(O)cc1O)C1CC1c1ccc(Oc2ccc(Cl)cc2Cl)cc1 (centres unmarked) [Example 29, (2-(4-(2,4-dichlorophenoxy)phenyl)cyclopropyl)(2,4,6-trihydroxyphenyl) methanone]	1.5 (≈ 3.48 µM)	1.5 (≈ 3.48 µM)	2.4 (≈ 5.56 µM)			
Cc1cc(Oc2ccccc2)ccc1/C=C/C(=O)c1c(O)cc(O)cc1O [Example 31, (E)-3-(2-methyl-4-phenoxyphenyl)-1-(2,4,6-trihydroxyphenyl)prop-2-en-1-one]	5.8 (≈ 16 µM)	1.4 (≈ 3.86 µM)	9.6 (≈ 26.5 µM)			
O=C(/C=C/c1ccc(Oc2ccc(F)cc2)cc1C(F)(F)F)c1c(O)cc(O)cc1O [Example 32, (E)-3-(4-(4-fluorophenoxy)-2-(trifluoromethyl)phenyl)-1-(2,4,6-trihydroxyphenyl)prop-2-en-1-one]	3.5 (≈ 8.06 µM)	2.1 (≈ 4.83 µM)	5.7 (≈ 13.1 µM)			
Cc1cc(Oc2ccccc2)ccc1CCC(=O)c1c(O)cc(O)cc1O [Example 33, 3-(2-methyl-4-phenoxyphenyl)-1-(2,4,6-trihydroxyphenyl)propan-1-one]	4.6 (≈ 12.6 µM)	1.6 (≈ 4.39 µM)	7.5 (≈ 20.6 µM)			
CCCc1c(O)cc(O)c(C(=O)/C=C/c2ccc(Oc3ccc(F)cc3)cc2)c1O [Example 67, (E)-3-(4-(4-fluorophenoxy)phenyl)-1-(2,4,6-trihydroxy-3-propylphenyl)prop-2-en-1-one]		0.72 (≈ 1.76 µM)	0.55 (≈ 1.35 µM)			
